Data on one compound can be found in US20100093642A1, “NOVEL POLYPEPTIDES” (priority 2006, published 2010).

Molecules are shown by their SMILES. Residues, ends and D or L forms follow the SMILES beside them.

The test concerns human breast malignant carcinoma cell line (MT-1). Type of test: cell-based. The settings on record: 24 h. As to the method: The cytotoxic effects of the peptides on different human tumour cells were measured using the MTT colorimetric assay (Mosmann, 1983). MIT (3-(4-5-dimethylthiazol-2-yl)-2,5-diphenyl tetrazolium bromide) is a soluble tetrazolium salt yielding a yellow solution when prepared in media or salt solutions lacking phenol red. Dissolved MIT is converted to an insoluble purple formazan by cleavage of the tetrazolium ring by dehydrogenase enzymes. This water insoluble formazan can be solubilized using isopropanol or other solvents and the dissolved material is measured spectrophotometrically. The absorbance was measured as a function of concentration of converted dye. […]
The tumour cell lines FemX, HT-29, MT-1 were maintained in RPMI-1640 medium supplemented with 10% heat inactivated FBS and 1% L-glutamine in a humidified atmosphere of 5% CO2 at 37° C. […] Cells to be used in the assay were grown to a minimum of 75% confluency, trypsinated and split to single cell suspension, counted and centrifuged at 1500 rpm for 10 min. […]
The cytotoxicity was measured using the MTT method (Mosmann, 1983), with minor modifications. […] The plate was placed on a shaker for 1 hour at room temperature and read spectrophotometrically at 590 nm in a microtiter plate reader (DTX880 Multimode Detector, Beckman Coulter). […]

As usually defined, the IC50 is the concentration that gives 50% inhibition. Low values mean greater potency, high ones weaker potency.

`CC[C@H](C)[C@H](NC(=O)CNC(=O)[C@H](CO)NC(=O)[C@H](CCCCN)NC(=O)[C@@H](NC(=O)[C@H](C)NC(=O)[C@H](Cc1c[nH]cn1)NC(=O)[C@H](CO)NC(=O)[C@@H](NC(=O)[C@H](CCCCN)NC(=O)[C@H](Cc1c[nH]cn1)NC(=O)[C@H](Cc1ccccc1)NC(=O)[C@@H](NC(=O)[C@H](CCCCN)NC(=O)[C@H](CCCCN)NC(=O)[C@H](Cc1ccccc1)NC(=O)C(Cc1c[nH]c2ccc(Br)cc12)NC(=O)CN)[C@@H](C)O)C(C)C)C(C)C)C(=O)N[C@@H](Cc1c[nH]cn1)C(=O)N[C@@H](C)C(=O)NCC(=O)N[C@@H](CCC(N)=O)C(=O)N[C@@H](CCCNC(=N)N)C(=O)NCC(=O)N[C@@H](CS)C(=O)N[C@@H](CO)C(=O)N[C@@H](C)C(=O)N[C@@H](CC(C)C)C(=O)NCC(=O)N[C@@H](Cc1ccccc1)C(=O)O` (stereo partly shown) [P17 HC-Br] (HELM PEPTIDE1{G.[O=C(C(Cc1c[nH]c2ccc(Br)cc12)N[*:1])[*:2]].F.K.K.T.F.H.K.V.S.H.A.V.K.S.G.I.H.A.G.Q.R.G.C.S.A.L.G.F}$$$$V2.0): inhibition was half-maximal at 20 µM (IC50).
